From US4472404A, “8-Quinolinyl carbamates and their use as urinary tract antimicrobials” (priority 1982, dated 1984)
≈ marks a conversion by molar mass, not a printed value. Like-named read-outs stand apart in the source and are kept apart here.

Tests used:
Assay type in all cases: cell-based
Aspergillus niger = test: Agar-plate minimum inhibitory concentration (Example 12); conditions: read-out: Minimum Inhibitory Concentration
Protocol: (§1) The test compound was added to molten agar as a solution (when conveniently soluble in a solvent such as dimethylformamide) or a suspension forming a mixture having a concentration of 0.05 percent (500 ppm). The mixture was stirred and poured into plates to harden. When hardened, the plates were inoculated with various bacteria and fungi. The bacteria-inoculated plates were incubated at 37° C. for 24 hours, while the fungi-inoculated plates were incubated for about 72-120 hours. Following incubation, the plates were examined for growth or inhibition of the respective organisms.
(§2) After the initial readings, compounds showing sufficient activity were re-tested at various concentrations to determine the minimum inhibitory concentration (in ppm) of the compounds of the invention against the various bacteria and fungi tested.

Bacillus subtilis = test: as above; conditions: read-out: Minimum Inhibitory Concentration
Protocol: as §1, §2

Candida albicans = test: as above; conditions: read-out: Minimum Inhibitory Concentration
Protocol: as §1, §2

Candida pelliculosa = test: as above; conditions: Hansenula anomala, read-out: Minimum Inhibitory Concentration
Protocol: as §1, §2

Ceratocystis ips = test: as above; conditions: read-out: Minimum Inhibitory Concentration
Protocol: as §1, §2

Salmonella typhosa = test: as above; conditions: Salmonella enterica, read-out: Minimum Inhibitory Concentration
Protocol: as §1, §2

Streptococcus mutans = test: as above; conditions: read-out: Minimum Inhibitory Concentration
Protocol: as §1, §2

[1] = tested on: Trichophyton mentagrophytes; test: as above; conditions: read-out: Minimum Inhibitory Concentration
Protocol: as §1, §2

[2] = tested on: Enterobacter aerogenes ATCC 13048; test: Minimum inhibitory concentration, urinary tract organisms (Example 13); conditions: Klebsiella aerogenes
Protocol: as §1, §2
(§3) Following a procedure substantially the same as that described in Example 12, the minimum inhibitory concentration for the compounds described herein was determined for various organisms representative of those commonly associated with urinary tract infections.
(§4) The organisms used in this procedure and the abbreviations designated in Table 3 are as follows: […]

[3] = tested on: Escherichia coli ATCC 11229; test: as above
Protocol: as §1, §2, §3, §4

[4] = tested on: Escherichia coli ATCC 25922; test: as above
Protocol: as §1, §2, §3, §4

[5] = tested on: Escherichia coli ATCC 4157; test: as above
Protocol: as §1, §2, §3, §4

[6] = tested on: Escherichia coli ATCC 9723; test: as above
Protocol: as §1, §2, §3, §4

[7] = tested on: Klebsiella pneumoniae ATCC 23357; test: as above
Protocol: as §1, §2, §3, §4

[8] = tested on: Klebsiella pneumoniae M-1; test: as above
Protocol: as §1, §2, §3, §4

[9] = tested on: Klebsiella pneumoniae M-2; test: as above
Protocol: as §1, §2, §3, §4

[10] = tested on: Klebsiella pneumoniae M-6; test: as above
Protocol: as §1, §2, §3, §4

Proteus mirabilis 470/1 = test: as above
Protocol: as §1, §2, §3, §4

[11] = tested on: Pseudomonas aeruginosa ATCC 10145; test: as above
Protocol: as §1, §2, §3, §4

[12] = tested on: Pseudomonas aeruginosa ATCC 27853; test: as above
Protocol: as §1, §2, §3, §4

[13] = tested on: Pseudomonas aeruginosa ATCC 7700; test: as above
Protocol: as §1, §2, §3, §4

[14] = tested on: Pseudomonas aeruginosa PRD-10; test: as above
Protocol: as §1, §2, §3, §4

Serratia marcescens M-1 = test: as above
Protocol: as §1, §2, §3, §4

[15] = tested on: Staphylococcus aureus ATCC 25923; test: as above
Protocol: as §1, §2, §3, §4

[16] = Candida pelliculosa, agar, 72-120 hours
[17] = Ceratocystis ips, agar, 72-120 hours
[18] = Salmonella typhosa, agar, 37° C., 24 hours
[19] = ATCC13048, Ea 13048, read-out: Minimum Inhibitory Concentration
[20] = ATCC11229, Ec 11229, read-out: Minimum Inhibitory Concentration
[21] = ATCC25922, Ec 25922, read-out: Minimum Inhibitory Concentration
[22] = ATCC4157, Ec 4157, read-out: Minimum Inhibitory Concentration
[23] = ATCC9723, Ec 9723, read-out: Minimum Inhibitory Concentration
[24] = ATCC23357, Kp 23357, read-out: Minimum Inhibitory Concentration
[25] = M1, Kp M-1, read-out: Minimum Inhibitory Concentration
[26] = M2, Kp M-2, read-out: Minimum Inhibitory Concentration
[27] = M6, Kp M-6, read-out: Minimum Inhibitory Concentration
[28] = Pm 470/1, read-out: Minimum Inhibitory Concentration
[29] = ATCC10145, Pa 10145, read-out: Minimum Inhibitory Concentration
[30] = ATCC27853, Pa 27853, read-out: Minimum Inhibitory Concentration
[31] = ATCC7700, Pa 7700, read-out: Minimum Inhibitory Concentration
[32] = PRD10, Pa PRD-10, read-out: Minimum Inhibitory Concentration
[33] = M1, Sr M-1, read-out: Minimum Inhibitory Concentration
[34] = ATCC25923, Sa 25923, read-out: Minimum Inhibitory Concentration
[35] = ATCC13048, read-out: Minimum Inhibitory Concentration
[36] = ATCC11229, read-out: Minimum Inhibitory Concentration
[37] = ATCC25922, read-out: Minimum Inhibitory Concentration
[38] = ATCC4157, read-out: Minimum Inhibitory Concentration
[39] = ATCC9723, read-out: Minimum Inhibitory Concentration
[40] = ATCC23357, read-out: Minimum Inhibitory Concentration
[41] = M1, read-out: Minimum Inhibitory Concentration
[42] = M2, read-out: Minimum Inhibitory Concentration
[43] = M6, read-out: Minimum Inhibitory Concentration
[44] = 470/1, read-out: Minimum Inhibitory Concentration
[45] = ATCC10145, read-out: Minimum Inhibitory Concentration
[46] = ATCC27853, read-out: Minimum Inhibitory Concentration
[47] = ATCC7700, read-out: Minimum Inhibitory Concentration
[48] = PRD10, read-out: Minimum Inhibitory Concentration
[49] = ATCC25923, read-out: Minimum Inhibitory Concentration

CCOC(=O)CNC(=O)Oc1cccc2ccc(C)nc12 [Example 3, Ethyl N-(((2-methyl-8-quinolinyl)oxy)carbonyl)glycinate]
MIC (Aspergillus niger; agar, 72-120 hours): 500 µg/mL (≈ 1730 µM)
MIC (Bacillus subtilis; agar, 37° C., 24 hours): 10 µg/mL (≈ 34.7 µM)
MIC (Candida albicans; agar, 72-120 hours): 500 µg/mL (≈ 1730 µM)
MIC (Candida pelliculosa; [16]): 500 µg/mL (≈ 1730 µM)
MIC (Ceratocystis ips; [17]): 500 µg/mL (≈ 1730 µM)
MIC (Salmonella typhosa; [18]): 50 µg/mL (≈ 173 µM)
MIC (Streptococcus mutans; agar, 37° C., 24 hours): 500 µg/mL (≈ 1730 µM)
MIC ([1]; agar, 72-120 hours): 500 µg/mL (≈ 1730 µM)
MIC [2, 19]: 250 µg/mL (≈ 867 µM)
MIC [3, 20]: 75 µg/mL (≈ 260 µM)
MIC [4, 21]: 75 µg/mL (≈ 260 µM)
MIC [5, 22]: 100 µg/mL (≈ 347 µM)
MIC [6, 23]: 100 µg/mL (≈ 347 µM)
MIC [7, 24]: 250 µg/mL (≈ 867 µM)
MIC [8, 25]: 250 µg/mL (≈ 867 µM)
MIC [9, 26]: 250 µg/mL (≈ 867 µM)
MIC [10, 27]: 250 µg/mL (≈ 867 µM)
MIC (Proteus mirabilis 470/1; [28]): 250 µg/mL (≈ 867 µM)
MIC [11, 29]: 250 µg/mL (≈ 867 µM)
MIC [12, 30]: > 1000 µg/mL
MIC [13, 31]: > 1000 µg/mL
MIC [14, 32]: > 1000 µg/mL
MIC (Serratia marcescens M-1; [33]): 750 µg/mL (≈ 2600 µM)
MIC [15, 34]: 25 µg/mL (≈ 86.7 µM)

CCOC(=O)CNC(=O)Oc1ccc([N+](=O)[O-])c2cccnc12 [Example 5, Ethyl N-(((5-nitro-8-quinolinyl)oxy)carbonyl)glycinate]
MIC (Aspergillus niger; agar, 72-120 hours): 50 µg/mL (≈ 157 µM)
MIC (Bacillus subtilis; agar, 37° C., 24 hours): 5 µg/mL (≈ 15.7 µM)
MIC (Candida albicans; agar, 72-120 hours): 50 µg/mL (≈ 157 µM)
MIC (Candida pelliculosa; [16]): 50 µg/mL (≈ 157 µM)
MIC (Ceratocystis ips; [17]): 100 µg/mL (≈ 313 µM)
MIC (Salmonella typhosa; [18]): 5 µg/mL (≈ 15.7 µM)
MIC (Streptococcus mutans; agar, 37° C., 24 hours): > 500 µg/mL
MIC ([1]; agar, 72-120 hours): 50 µg/mL (≈ 157 µM)
MIC [2, 19]: 25 µg/mL (≈ 78.3 µM)
MIC [3, 20]: 25 µg/mL (≈ 78.3 µM)
MIC [4, 21]: 10 µg/mL (≈ 31.3 µM)
MIC [5, 22]: 25 µg/mL (≈ 78.3 µM)
MIC [6, 23]: 25 µg/mL (≈ 78.3 µM)
MIC [7, 24]: 10 µg/mL (≈ 31.3 µM)
MIC [8, 25]: 25 µg/mL (≈ 78.3 µM)
MIC [9, 26]: 25 µg/mL (≈ 78.3 µM)
MIC [10, 27]: 25 µg/mL (≈ 78.3 µM)
MIC (Proteus mirabilis 470/1; [28]): 10 µg/mL (≈ 31.3 µM)
MIC [11, 29]: 25 µg/mL (≈ 78.3 µM)
MIC [12, 30]: 75 µg/mL (≈ 235 µM)
MIC [13, 31]: 100 µg/mL (≈ 313 µM)
MIC [14, 32]: 50 µg/mL (≈ 157 µM)
MIC (Serratia marcescens M-1; [33]): 50 µg/mL (≈ 157 µM)
MIC [15, 34]: 25 µg/mL (≈ 78.3 µM)

CNC(=O)Oc1c(Br)cc(Br)c2cccnc12 [Example 11, 5,7-Dibromo-8-quinolinyl N-methylcarbamate]
MIC [2, 35]: 25 µg/mL (≈ 69.4 µM)
MIC [3, 36]: 25 µg/mL (≈ 69.4 µM)
MIC [4, 37]: 25 µg/mL (≈ 69.4 µM)
MIC [5, 38]: 25 µg/mL (≈ 69.4 µM)
MIC [6, 39]: 25 µg/mL (≈ 69.4 µM)
MIC [7, 40]: 25 µg/mL (≈ 69.4 µM)
MIC [8, 41]: 25 µg/mL (≈ 69.4 µM)
MIC [9, 42]: 25 µg/mL (≈ 69.4 µM)
MIC [10, 43]: 25 µg/mL (≈ 69.4 µM)
MIC (Proteus mirabilis 470/1; [44]): 25 µg/mL (≈ 69.4 µM)
MIC [11, 45]: 25 µg/mL (≈ 69.4 µM)
MIC [12, 46]: 100 µg/mL (≈ 278 µM)
MIC [13, 47]: 100 µg/mL (≈ 278 µM)
MIC [14, 48]: 100 µg/mL (≈ 278 µM)
MIC (Serratia marcescens M-1; [41]): 50 µg/mL (≈ 139 µM)
MIC [15, 49]: 25 µg/mL (≈ 69.4 µM)

CNC(=O)Oc1c(Cl)cc(Cl)c2cccnc12 [Example 10, 5,7-Dichloro-8quinolinyl N-methylcarbamate]
MIC (Aspergillus niger): 10 µg/mL (≈ 36.9 µM)
MIC (Bacillus subtilis; 24 h): 0.5 µg/mL (≈ 1.84 µM)
MIC (Candida albicans): 5 µg/mL (≈ 18.4 µM)
MIC (Candida pelliculosa): 5 µg/mL (≈ 18.4 µM)
MIC (Ceratocystis ips): 50 µg/mL (≈ 184 µM)
MIC (Salmonella typhosa; TYPHOSA, 24 h): 10 µg/mL (≈ 36.9 µM)
MIC (Streptococcus mutans; 24 h): 10 µg/mL (≈ 36.9 µM)
MIC [1]: 50 µg/mL (≈ 184 µM)
MIC [2, 35]: 25 µg/mL (≈ 92.2 µM)
MIC [3, 36]: 10 µg/mL (≈ 36.9 µM)
MIC [4, 37]: 10 µg/mL (≈ 36.9 µM)
MIC [5, 38]: 10 µg/mL (≈ 36.9 µM)
MIC [6, 39]: 10 µg/mL (≈ 36.9 µM)
MIC [7, 40]: 10 µg/mL (≈ 36.9 µM)
MIC [8, 41]: 25 µg/mL (≈ 92.2 µM)
MIC [9, 42]: 25 µg/mL (≈ 92.2 µM)
MIC [10, 43]: 25 µg/mL (≈ 92.2 µM)
MIC (Proteus mirabilis 470/1; [44]): 10 µg/mL (≈ 36.9 µM)
MIC [11, 45]: 10 µg/mL (≈ 36.9 µM)
MIC [12, 46]: 50 µg/mL (≈ 184 µM)
MIC [13, 47]: 50 µg/mL (≈ 184 µM)
MIC [14, 48]: 25 µg/mL (≈ 92.2 µM)
MIC (Serratia marcescens M-1; [41]): 25 µg/mL (≈ 92.2 µM)
MIC [15, 49]: < 5 µg/mL
